Reference: patent US12285034B2, “Human and non-human animal use of microbial anaplerotic oil” (HELIAE DEVELOPMENT, LLC, priority 2017, dated 2025)
Read-outs that look alike come from different tables or passages of the source.

Legend:
[1] = tested on: Aurantiochytrium acetophilum HS399; assay: Propionate concentration and OCFA titers, flask (Example 13); type: cell-based; conditions: 96 h
Excerpt: The trace element solution contains (g/L): […] The vitamin solution contains (mg/L): thiamine (100) and biotin (0.5). […] The washed biomass is freeze dried.

[2] = tested on: Aurantiochytrium acetophilum HS399; type: cell-based; conditions: for OCFA / Total Fatty Acids / Total Lipids: harvest; for OCFA Productivity / Propionate deposition: 120 h
Method: Respective Erlenmeyer flasks (250 mL) are inoculated (1% v/v) in triplicates with a 24 h old culture of A. acetophilum HS399 and incubated in an orbital shaker at 180 rpm and 27° C.
Respective Erlenmeyer flasks contain 100 mL of a medium supplemented with (g/L): dextrose (100), ammonium acetate (4.6), NaCl (12.5), MgSO4 7H2O (2.5), KH2PO4 (0.5), KCl (0.5) and CaCl2 (0.1). This medium also contains trace element solution (5 ml/L) and vitamin solution (1 ml/L). The trace element solution contains (g/L): EDTA di-sodium salt (6), FeCl3 6H2O (0.29), […] (6.84), MnCl2 4H2O (0.86), ZnCl2 (0.06), CoCl2 6H2O (0.026), NiSO4 6H2O (0.052), CuSO4 5H2O (0.002), Na2MoO4H2O (0.005). The vitamin solution contains (mg/L): thiamine (100), biotin (0.5) and cyanocobalamin (0.5).
In this example, respective culture materials are autoclaved (e.g., 121° C., 15 min) and the media is filter sterilized before use. […] Daily samples are collected to analyze the cell dry weight, residual glucose, culture pH (see FIG. 15), and lipid and fatty acid composition of the cultures. Cell dry weights are analyzed by filtration (e.g., 0.2 μm filter media) using a vacuum and washed with a solution of ammonium bicarbonate. Residual glucose is analyzed using a colorimetric method based on glucose […] activity. Biomass for lipid analysis is centrifuged and washed using purified water. The washed biomass is freeze dried. Total lipids are analyzed using Folch method (AOAC 996.06) and the FAMES are analyzed by gas chromatography and flame ionization detection using nonadecanoic (C19:0) acid as an internal standard.

[3] = tested on: Aurantiochytrium acetophilum HS399
Method: The cultures are incubated in an orbital shaker at 180 rpm and 27° C.
Respective Erlenmeyer flasks contain 100 mL of a medium supplemented with (g/L): dextrose (100), ammonium acetate (4.6), NaCl (12.5), MgSO4 7H2O (2.5), KH2PO4 (0.5), KCl (0.5) and CaCl2 (0.1). This medium also contains trace element solution (5 ml/L) and vitamin solution (1 ml/L). The trace element solution contains (g/L): EDTA di-sodium salt (6), FeCl3 6H2O (0.29), […] (6.84), MnCl2 4H2O (0.86), ZnCl2 (0.06), CoCl2 6H2O (0.026), NiSO4 6H2O (0.052), CuSO4 5H2O (0.002), Na2MoO4H2O (0.005). The vitamin solution contains (mg/L): thiamine (100), biotin (0.5) and cyanocobalamin (0.5). All culture materials can be autoclaved (e.g., 121° C., 15 min) and the media can be filter sterilized before use. […] Daily samples are collected to analyze the cell dry weight, residual glucose, culture pH (see FIG. 9), and lipid and fatty acid composition of the cultures. Cell dry weights (CDW) can be analyzed by filtration (e.g., 0.2 μm filter media) using a vacuum, and washed with a solution of ammonium bicarbonate. Residual glucose can be analyzed using colorimetric methods based on glucose […] activity. Biomass for lipid analysis is centrifuged and washed using purified water. The washed biomass is freeze dried. Total lipids are analyzed using Folch method (AOAC 996.06) and the FAMES re analyzed by gas chromatography using nonadecanoic (C19:0) acid as an internal standard.

[4] = propionate 0 + 1 + 1 + 1 g/L (Day 5)
[5] = propionate 0 + 2 + 2 + 2 g/L (Day 5)
[6] = propionate 0 + 3 g/L (Day 5), listed as propionate
[7] = propionate 3 g/L (Day 5), listed as propionate
[8] = 116 h, propionate 3 + 3 + 3 g/L
[9] = propionate 3 + 3 + 3 g/L (166 h)

SMILES: CCC(=O)O [Propionate, propionic acid]
- OCFA ([1]; propionate 2 g/L): 30.7 ± 1.8 % TFA
- Total Fatty Acids ([1]; propionate 2 g/L): 54.8 ± 5.6 % DW
- OCFA ([1]; propionate 3 g/L): 50.8 ± 1.1 % TFA
- Total Fatty Acids ([1]; propionate 3 g/L): 56.2 ± 0.6 % DW
- OCFA ([1]; propionate 4 g/L): 63.0 ± 2.5 % TFA
- Total Fatty Acids ([1]; propionate 4 g/L): 39.2 ± 12.4 % DW
- OCFA ([1]; propionate 5 g/L): 64.6 ± 0.3 % TFA
- Total Fatty Acids ([1]; propionate 5 g/L): 41.0 ± 3.4 % DW
- residual concentration giving some growth inhibition [2]: 1 g/L
- increase of OCFAs productivity by feeding propionate merely during lipogenesis ([2]; P3 vs P0+3): approximately 20%
- OCFA ([2]; propionate 0 + 1 + 1 + 1 g/L): 29.2 ± 0.4 % TFA
- Total Fatty Acids ([2]; propionate 0 + 1 + 1 + 1 g/L): 67.2 ± 5.0 % DW
- Total Lipids ([2]; propionate 0 + 1 + 1 + 1 g/L): 79.7 ± 0.6 % DW
- OCFA ([2]; propionate 0 + 2 + 2 + 2 g/L): 53.5 ± 0.8 % TFA
- Total Fatty Acids ([2]; propionate 0 + 2 + 2 + 2 g/L): 63.5 ± 1.6 % DW
- Total Lipids ([2]; propionate 0 + 2 + 2 + 2 g/L): 76.0 ± 1.0 % DW
- Total Fatty Acids ([2]; propionate 0 + 3 g/L): 66.0 ± 2.2 % DW
- Total Lipids ([2]; propionate 0 + 3 g/L): 79.5 ± 0.5 % DW
- OCFA ([2]; propionate 0 + 3 g/L (P0+3)): 27.6 ± 0.1 % TFA
- OCFA ([2]; propionate 0 + 3 g/L (P0+3), listed as propionate): 27.4 % TFA
- OCFA ([2]; propionate 3 g/L (P3)): 25.5 ± 0.2 % TFA
- OCFA ([2]; propionate 3 g/L (P3), listed as propionate): 25.2 % TFA
- Total Fatty Acids ([2]; propionate 3 g/L (day 0)): 64.8 ± 1.2 % DW
- Total Lipids ([2]; propionate 3 g/L (day 0)): 78.0 ± 0.0 % DW
- OCFA Productivity [2, 4]: 1.19 ± 0.03 g/L/day
- Propionate deposition [2, 4]: 59.6 ± 1.4%
- OCFA Productivity [2, 5]: 1.86 ± 0.04 g/L/day
- Propionate deposition [2, 5]: 46.7 ± 0.9%
- OCFA Productivity ([2]; propionate 0 + 3 g/L (Day 5)): 1.18 ± 0.02 g/L/day
- Propionate deposition ([2]; propionate 0 + 3 g/L (Day 5)): 59.3 ± 1.1%
- OCFA Productivity [2, 6]: 1.18 ± 0.02 g/L/day
- Propionate deposition [2, 6]: 59.3±1.1%
- OCFA Productivity ([2]; propionate 3 g/L (Day 5)): 1.04 ± 0.01 g/L/day
- Propionate deposition ([2]; propionate 3 g/L (Day 5)): 52.2 ± 0.7%
- OCFA Productivity [2, 7]: 1.18 ± 0.02 g/L/day
- Propionate deposition [2, 7]: 52.2±0.7%
- OCFA ([3]; 68 h, propionate 3 + 3 + 3 g/L): 60.6 ± 0.4 % TFA
- Total Fatty Acids ([3]; 68 h, propionate 3 + 3 + 3 g/L): 40.7 ± 1.7 % DW
- OCFA ([3]; 68 h, propionate 3 + 3 g/L): 60.9 ± 0.6 % TFA
- Total Fatty Acids ([3]; 68 h, propionate 3 + 3 g/L): 44.5 ± 4.5 % DW
- OCFA ([3]; 68 h, propionate 3 g/L): 52.9 ± 7.3 % TFA
- Total Fatty Acids ([3]; 68 h, propionate 3 g/L): 45.1 ± 3.0 % DW
- growth (cell dry weight) ([3]; 70 h, fed batching of 9 g/L propionate): ~15 g/L
- Total Fatty Acids ([3]; 96 h, propionate 3 + 3 + 3 g/L): 56.3 ± 1.2 % DW
- Total Lipids ([3]; 96 h, propionate 3 + 3 + 3 g/L): 70.0 ± 1.0 % DW
- OCFA ([3]; 96 h, propionate 3 + 3 + 3 g/L (P9)): 62.9 ± 0.2 % TFA
- OCFA ([3]; 96 h, propionate 3 + 3 + 3 g/L (P9), listed as propionate): 62.4 % TFA
- Total Fatty Acids ([3]; 96 h, propionate 3 + 3 g/L): 62.5 ± 0.3 % DW
- Total Lipids ([3]; 96 h, propionate 3 + 3 g/L): 73.3 ± 1.5 % DW
- OCFA ([3]; 96 h, propionate 3 + 3 g/L (P6)): 62.8 ± 0.2 % TFA
- OCFA ([3]; 96 h, propionate 3 + 3 g/L (P6), listed as propionate): 62.4 % TFA
- OCFA ([3]; 96 h, propionate 3 g/L): 24.0 ± 1.0 % TFA
- Total Fatty Acids ([3]; 96 h, propionate 3 g/L): 66.8 ± 4.8 % DW
- Total Lipids ([3]; 96 h, propionate 3 g/L): 81.0 ± 1.0 % DW
- OCFA [3, 8]: 60.8 ± 0.2 % TFA
- Total Fatty Acids [3, 8]: 63.1 ± 2.0 % DW
- Total Lipids [3, 8]: 74.0 ± 1.0 % DW
- OCFA ([3]; 116 h, propionate 3 + 3 + 3 g/L, listed as propionic acid): 60.4 % TFA
- OCFA ([3]; 116 h, propionate 3 + 3 g/L): 57.5 ± 1.4 % TFA
- Total Fatty Acids ([3]; 116 h, propionate 3 + 3 g/L): 70.8 ± 0.6 % DW
- Total Lipids ([3]; 116 h, propionate 3 + 3 g/L): 77.7 ± 0.6 % DW
- OCFA ([3]; 116 h, propionate 3 g/L): 22.8 ± 0.8 % TFA
- Total Fatty Acids ([3]; 116 h, propionate 3 g/L): 71.7 ± 4.3 % DW
- Total Lipids ([3]; 116 h, propionate 3 g/L): 74.8 ± 0.3 % DW
- non-lethal but growth inhibitory concentration ([3]; as low as, pH of 7): 1 g/L
- OCFA Productivity [3, 9]: 2.56 ± 0.04 g/L/day
- Propionate deposition [3, 9]: 39.5 ± 1.7%
- OCFA Productivity ([3]; propionate 3 + 3 g/L (116 h)): 2.89 ± 0.06 g/L/day
- Propionate deposition ([3]; propionate 3 + 3 g/L (116 h)): 65.0 ± 0.6%
- OCFA Productivity ([3]; propionate 3 g/L (96 h)): 1.53 ± 0.02 g/L/day
- Propionate deposition ([3]; propionate 3 g/L (96 h)): 57.0 ± 0.9%
- OCFAs of total DW of algal product ([3]; three doses of 3 g/L, 60.4% OCFAs of the 63.1% TFA): 38.1%
